Patent publication US20120128705A1, “C6ORF167 PEPTIDES AND VACCINES CONTAINING THE SAME” (OncoTherapy Science, Inc., priority 2009, published 2012)
Ends that are not written are not given here.

Legend:
Type in all cases: cell-based, human
peptide-pulsed T2 [1] = assay: IFN-gamma ELISPOT assay on CTLs induced with peptide (HLA-A*0201); conditions: CTLs from HLA-A*0201 positive donor, 3 rounds of stimulation, day 21; vs control wells without peptide
From the text: Monocyte-derived dendritic cells (DCs) were used as antigen-presenting cells to induce cytotoxic T lymphocyte (CTL) responses against peptides presented on human leukocyte antigen (HLA). DCs were generated in vitro as described elsewhere (Nakahara S et al., Cancer Res 2003 Jul. 15, 63(14): 4112-8). Specifically, peripheral blood mononuclear cells (PBMCs) isolated from a normal volunteer (HLA-A*0201 positive) by Ficoll-Plaque (Pharmacia) solution were separated by adherence to a plastic tissue culture dish (Becton Dickinson) so as to enrich them as the monocyte fraction. The monocyte-enriched population was cultured in the presence of 1,000 U/ml of granulocyte-macrophage colony-stimulating factor (R&D System) and 1,000 U/ml of interleukin (IL)-4 (R&D System) in AIM-V Medium (Invitrogen) containing 2% heat-inactivated autologous serum (AS). After 7 days of culture, the cytokine-induced DCs were pulsed with 20 micro-g/ml of each of the synthesized peptides in the presence of 3 micro-g/ml of beta 2-microglobulin for 3 hrs at 37 degrees C. in AIM-V Medium. The generated cells appeared to express DC-associated molecules, such as CD80, CD83, CD86 and HLA class II, on their cell surfaces (data not shown). These peptide-pulsed DCs were then inactivated by X-irradiated (20 Gy) and mixed at a 1:20 ratio with autologous CD8+ T cells, obtained by positive selection with CD8 positive Isolation Kit (Dynal). These cultures were set up in 48-well plates (Corning); each well contained 1.5×10^4 peptide-pulsed DCs, 3×10^5 CD8+ T cells and 10 ng/ml of IL-7 (R&D System) in 0.5 ml of AIM-V/2% AS medium. Three days later, these cultures were supplemented with IL-2 (CHIRON) to a final concentration of 20 IU/ml. On days 7 and 14, the T cells were further stimulated with the autologous peptide-pulsed DCs. The DCs were prepared each time by the same way described above. CTL was tested against peptide-pulsed T2 cells after the 3rd round of peptide stimulation on day 21 (Tanaka H et al., Br J Cancer 2001 Jan. 5, 84(1): 94-9; Umano Y et al., Br J Cancer 2001 Apr. 20, 84(8): 1052-7; Uchida N et al., Clin Cancer Res 2004 Dec. 15, 10(24): 8577-86; Suda T et al., Cancer Sci 2006 May, 97(5): 411-9; Watanabe T et al., Cancer Sci 2005 August, 96(8): 498-506).
(§1) To examine specific CTL activity, interferon (IFN)-gamma enzyme-linked immunospot (ELISPOT) assay and IFN-gamma enzyme-linked immunosorbent assay (ELISA) were performed. Specifically, peptide-pulsed T2 (1×10^4/well) was prepared as stimulator cells. Cultured cells in 48 wells were used as responder cells. IFN-gamma ELISPOT assay and IFN-gamma ELISA assay were performed under manufacture procedure.

peptide-pulsed T2 [2] = assay: IFN-gamma ELISA assay of CTL lines (HLA-A*0201); conditions: target cells pulsed with corresponding peptide vs without peptide pulse
Procedure: CTLs were expanded in culture using the method similar to the one described by Riddell et al. (Walter E A et al., N Engl J Med 1995 Oct. 19, 333(16): 1038-44; Riddell S R et al., Nat Med 1996 February, 2(2): 216-23). A total of 5×10^4 CTLs were suspended in 25 ml of AIM-V/5% AS medium with 2 kinds of human B-lymphoblastoid cell lines, inactivated by Mitomycin C, in the presence of 40 ng/ml of anti-CD3 monoclonal antibody (Pharmingen). One day after initiating the cultures, 120 IU/ml of IL-2 were added to the cultures. The cultures were fed with fresh AIM-V/5% AS medium containing 30 IU/ml of IL-2 on days 5, 8 and 11 (Tanaka H et al., Br J Cancer 2001 Jan. 5, 84(1): 94-9; Umano Y et al., Br J Cancer 2001 Apr. 20, 84(8): 1052-7; Uchida N et al., Clin Cancer Res 2004 Dec. 15, 10(24): 8577-86; Suda T et al., Cancer Sci 2006 May, 97(5): 411-9; Watanabe T et al., Cancer Sci 2005 August, 96(8): 498-506).
as §1

peptide-pulsed T2 [3] = assay: IFN-gamma ELISA assay of CTL clones (HLA-A*0201); conditions: clones by limiting dilution; target cells pulsed with peptide
Procedure: The dilutions were made to have 0.3, 1, and 3 CTLs/well in 96 round-bottomed micro titer plate (Nalge Nunc International). CTLs were cultured with 1×10^4 cells/well of 2 kinds of human B-lymphoblastoid cell lines, 30 ng/ml of anti-CD3 antibody, and 125 U/ml of IL-2 in a total of 150 micro-l/well of AIM-V Medium containing 5% AS. 50 micro-1/well of IL-2 were added to the medium 10 days later so to reach a final concentration of 125 U/ml IL-2. CTL activity was tested on the 14th day, and CTL clones were expanded using the same method as described above (Uchida N et al., Clin Cancer Res 2004 Dec. 15, 10(24): 8577-86; Suda T et al., Cancer Sci 2006 May, 97(5): 411-9; Watanabe T et al., Cancer Sci 2005 August, 96(8): 498-506).
as §1

Substance: GLQNfFSLFL (GLQNFFSLFL; not fully specified; printed as GLQNfFSLFL) [SEQ ID NO: 110]
- Peptide specific CTL activity: IFN-gamma production by ELISPOT (peptide-pulsed T2 [1]): potent IFN-gamma production
- IFN-gamma production of CTL lines by ELISA (peptide-pulsed T2 [2]): potent IFN-gamma production
- IFN-gamma production of CTL clones by ELISA (peptide-pulsed T2 [3]): Potent IFN-gamma productions

Substance: CLCIkELWVL (CLCIKELWVL; not fully specified (residue 5); printed as CLCIkELWVL; cysteine pairing not given here) [SEQ ID NO: 122]
- Peptide specific CTL activity: IFN-gamma production by ELISPOT (peptide-pulsed T2 [1]): potent IFN-gamma production
- IFN-gamma production of CTL lines by ELISA (peptide-pulsed T2 [2]): potent IFN-gamma production

Substance: ALVRFFEAV [SEQ ID NO: 76]
- Peptide specific CTL activity: IFN-gamma production by ELISPOT (peptide-pulsed T2 [1]): potent IFN-gamma production
- IFN-gamma production of CTL lines by ELISA (peptide-pulsed T2 [2]): potent IFN-gamma production
- IFN-gamma production of CTL clones by ELISA (peptide-pulsed T2 [3]): Potent IFN-gamma productions

Substance: FLLLaAVAEV (FLLLAAVAEV; not fully specified; printed as FLLLaAVAEV) [SEQ ID NO: 101]
- Peptide specific CTL activity: IFN-gamma production by ELISPOT (peptide-pulsed T2 [1]): potent IFN-gamma production
- IFN-gamma production of CTL lines by ELISA (peptide-pulsed T2 [2]): potent IFN-gamma production
- IFN-gamma production of CTL clones by ELISA (peptide-pulsed T2 [3]): Potent IFN-gamma productions

Substance: QQCVlFLHYV (QQCVLFLHYV; not fully specified; printed as QQCVlFLHYV) [SEQ ID NO: 113]
- Peptide specific CTL activity: IFN-gamma production by ELISPOT (peptide-pulsed T2 [1]): potent IFN-gamma production
- IFN-gamma production of CTL lines by ELISA (peptide-pulsed T2 [2]): potent IFN-gamma production
- IFN-gamma production of CTL clones by ELISA (peptide-pulsed T2 [3]): Potent IFN-gamma productions

Substance: VLFLHYVKV [SEQ ID NO: 66]
- Peptide specific CTL activity: IFN-gamma production by ELISPOT (peptide-pulsed T2 [1]): potent IFN-gamma production
- IFN-gamma production of CTL lines by ELISA (peptide-pulsed T2 [2]): potent IFN-gamma production
- IFN-gamma production of CTL clones by ELISA (peptide-pulsed T2 [3]): Potent IFN-gamma productions

Substance: KLTRLLFNL [SEQ ID NO: 65]
- Peptide specific CTL activity: IFN-gamma production by ELISPOT (peptide-pulsed T2 [1]): potent IFN-gamma production
- IFN-gamma production of CTL lines by ELISA (peptide-pulsed T2 [2]): potent IFN-gamma production
- IFN-gamma production of CTL clones by ELISA (peptide-pulsed T2 [3]): Potent IFN-gamma productions

Substance: FLLMyAQKNL (FLLMYAQKNL; not fully specified; printed as FLLMyAQKNL) [SEQ ID NO: 112]
- Peptide specific CTL activity: IFN-gamma production by ELISPOT (peptide-pulsed T2 [1]): potent IFN-gamma production
- IFN-gamma production of CTL lines by ELISA (peptide-pulsed T2 [2]): potent IFN-gamma production

Substance: WLVLeILYML (WLVLEILYML; not fully specified; printed as WLVLeILYML) [SEQ ID NO: 117]
- Peptide specific CTL activity: IFN-gamma production by ELISPOT (peptide-pulsed T2 [1]): potent IFN-gamma production
- IFN-gamma production of CTL lines by ELISA (peptide-pulsed T2 [2]): potent IFN-gamma production

Substance: FLTDsLELEL (FLTDSLELEL; not fully specified; printed as FLTDsLELEL) [SEQ ID NO: 111]
- Peptide specific CTL activity: IFN-gamma production by ELISPOT (peptide-pulsed T2 [1]): potent IFN-gamma production
- IFN-gamma production of CTL lines by ELISA (peptide-pulsed T2 [2]): potent IFN-gamma production
- IFN-gamma production of CTL clones by ELISA (peptide-pulsed T2 [3]): Potent IFN-gamma productions

Substance: LLCDlISLSL (LLCDLISLSL; not fully specified; printed as LLCDlISLSL) [SEQ ID NO: 123]
- Peptide specific CTL activity: IFN-gamma production by ELISPOT (peptide-pulsed T2 [1]): potent IFN-gamma production
- IFN-gamma production of CTL lines by ELISA (peptide-pulsed T2 [2]): potent IFN-gamma production

Substance: FLCILAKVV [SEQ ID NO: 84]
- Peptide specific CTL activity: IFN-gamma production by ELISPOT (peptide-pulsed T2 [1]): potent IFN-gamma production
- IFN-gamma production of CTL lines by ELISA (peptide-pulsed T2 [2]): potent IFN-gamma production
- IFN-gamma production of CTL clones by ELISA (peptide-pulsed T2 [3]): Potent IFN-gamma productions
